Legend:
[1] = target: T1, AR protein (Homo sapiens, UniProt P10275); assay: Detection of AR degradation in VCaP cells (automated western blot); format: cell-based; conditions: degradation of AR protein in VCaP cells, 24 hours incubation; read-out: DC50
T1 construct: VCap is a human prostate cancer cell line purchased from ATCC; host or cells: VCaP human prostate cancer cells
T1 sequence (P10275 1-920): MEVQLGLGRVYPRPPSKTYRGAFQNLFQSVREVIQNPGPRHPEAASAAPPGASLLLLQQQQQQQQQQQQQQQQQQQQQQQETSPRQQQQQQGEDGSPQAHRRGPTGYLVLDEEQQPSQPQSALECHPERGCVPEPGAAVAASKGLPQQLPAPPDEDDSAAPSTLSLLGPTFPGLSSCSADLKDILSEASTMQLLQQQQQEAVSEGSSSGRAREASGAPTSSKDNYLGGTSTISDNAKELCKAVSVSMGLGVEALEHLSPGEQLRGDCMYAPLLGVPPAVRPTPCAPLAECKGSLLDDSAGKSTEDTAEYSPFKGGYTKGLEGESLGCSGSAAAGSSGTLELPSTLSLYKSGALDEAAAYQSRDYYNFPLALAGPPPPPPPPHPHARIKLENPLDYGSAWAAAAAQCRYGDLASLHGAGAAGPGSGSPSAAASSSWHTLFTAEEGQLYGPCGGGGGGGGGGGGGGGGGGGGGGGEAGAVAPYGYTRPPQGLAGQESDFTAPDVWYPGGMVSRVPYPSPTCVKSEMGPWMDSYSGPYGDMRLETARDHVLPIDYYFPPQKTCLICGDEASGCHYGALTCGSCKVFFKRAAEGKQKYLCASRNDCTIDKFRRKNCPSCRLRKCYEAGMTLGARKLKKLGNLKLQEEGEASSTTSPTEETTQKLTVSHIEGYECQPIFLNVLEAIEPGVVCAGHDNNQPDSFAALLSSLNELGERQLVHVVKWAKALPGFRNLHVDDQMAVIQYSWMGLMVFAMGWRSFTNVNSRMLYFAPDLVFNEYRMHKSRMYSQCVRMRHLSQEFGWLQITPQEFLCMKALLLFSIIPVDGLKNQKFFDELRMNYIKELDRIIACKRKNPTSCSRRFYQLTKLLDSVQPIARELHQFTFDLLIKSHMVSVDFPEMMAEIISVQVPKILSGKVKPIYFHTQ
In short: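 VCaP cells (5 × 10^5/well) were treated with compounds at various concentrations for 24 h at 37°C. Lysate AR level was quantified by automated capillary western blot, normalised to β-actin and expressed relative to solvent control. DC50 came from four-parameter nonlinear regression; degradation rate = 100 − AR%.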

[2] = Pharmacokinetic test in rats; format: in vivo, SD rats; conditions: i.g. (5 mg/kg), vehicle 5% DMSO+5% Solutol+10% PEG400+80% (20% SBE-β-CD)
Protocol: Experimental objective: In this experiment, a single dose of the test compound was administered to SD rats via intravenous administration and intragastric gavage, and the concentration of the test compound in plasma of the rats was measured to evaluate the pharmacokinetic profile of the test compound in the rats.
Experimental animals: Male SD rats, 200-220 g, 6 rats/compound, purchased from Chengdu Ddossy Experimental Animals Co., Ltd.
Experimental method: On the day of the experiment, 6 SD rats were randomly grouped according to their body weights. The animals were fasted with water available for 12 to 14 h one day before the administration, and were fed 4 h after the administration. Table 3 Administration information of pharmacokinetic test in rats
Sampling: Before and after the administration, 0.1 mL of blood was taken from the orbits under isoflurane anaesthesia, and placed in an EDTAK2 centrifuge tube. Centrifugation was carried out at 5000 rpm at 4°C for 10 min, and the plasma was collected.
The plasma collection time points for IV&PO groups were 0, 5 min, 15 min, 30 min, 1 h, 2 h, 4 h, 7 h, 24 h, and 48 h.
Before analysis and detection, all samples were stored at -60°C. The samples were analysed quantitatively by LC-MS/MS. Table 4 Pharmacokinetic parameters of compounds of the present invention in plasma of rats

## CC1(C)[C@H](NC(=O)c2ccc(N3CCC(CN4CCN5c6cc(F)c(C7CCC(=O)NC7=O)cc6CC[C@H]5C4)CC3)cc2)C(C)(C)[C@H]1Oc1ccc(C#N)c2ncccc12 (stereo partly drawn) [Compound 31]
[1]
  DC50: < 100 nM
[2]
  F: 49.1+12%
[2]; rat, plasma, po
  AUC(0-t): 5430 ± 1360 ng·h/mL

— patent EP4763845A1, “CYANO AROMATIC RING DERIVATIVE AND PHARMACEUTICAL USE THEREOF” (Haisco Pharmaceutical Group Co., Ltd., priority 2023, dated 2025)
